In patent US12227500B2, “Substituted pyrrolo[2,3-b]pyridines for suppressing toxic endoplasmic reticulum stress” (THE TRUSTEES OF COLUMBIA UNIVERSITY IN THE CITY OF NEW YORK, priority 2018, dated 2025) one finds remaining activity data, which are given here for seven compounds.

Read-outs that look alike come from different tables or passages of the source.

Common to all, as to assay: Radiolabeled ATP kinase assay, panel of 60 kinases (Table S5)
What all share (assay type): biochemical

The target in test [1] is T1, panel of 60 human kinases (Homo sapiens, UniProt P45983).
T1 construct: purchased Reaction Biology Corp
T1 sequence (P45983 whole entry): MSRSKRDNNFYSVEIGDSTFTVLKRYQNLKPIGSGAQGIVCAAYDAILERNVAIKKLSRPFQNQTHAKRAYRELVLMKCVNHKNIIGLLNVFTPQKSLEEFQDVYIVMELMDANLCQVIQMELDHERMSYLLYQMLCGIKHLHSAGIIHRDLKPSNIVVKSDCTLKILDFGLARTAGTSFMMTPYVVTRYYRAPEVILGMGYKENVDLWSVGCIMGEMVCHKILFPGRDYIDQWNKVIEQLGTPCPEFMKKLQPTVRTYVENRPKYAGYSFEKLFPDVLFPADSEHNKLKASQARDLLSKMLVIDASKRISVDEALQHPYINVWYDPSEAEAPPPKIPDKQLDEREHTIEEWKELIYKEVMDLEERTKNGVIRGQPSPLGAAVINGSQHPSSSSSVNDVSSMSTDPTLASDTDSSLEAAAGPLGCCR
Particulars: JNK1; 0.1 μM; 10 μM ATP; read-out: % Enzyme Activity (relative to DSMO controls). As to the method:
(§1) To better understand the biologically relevant targets of compound 1 and its analogs, a second round of cell-free kinase assays was performed. In this expanded assay, we selected ten analogs ranging from moderately to very strongly protective in the CPA assay. These analogs were evaluated for their ability to inhibit a selection of 60 kinases at 0.1 μM and 0.5 μM. […] RNAseq data were used to confirm the expression of each kinase in ES MNs (see Example 12).
(§2) RNAseq data were used to confirm the expression of each kinase in ES motor neurons (see Example 12).

For test [2], the target named is T2, panel of 60 human kinases (Homo sapiens, UniProt Q16539).
T2 construct: purchased Reaction Biology Corp
T2 sequence (Q16539 whole entry): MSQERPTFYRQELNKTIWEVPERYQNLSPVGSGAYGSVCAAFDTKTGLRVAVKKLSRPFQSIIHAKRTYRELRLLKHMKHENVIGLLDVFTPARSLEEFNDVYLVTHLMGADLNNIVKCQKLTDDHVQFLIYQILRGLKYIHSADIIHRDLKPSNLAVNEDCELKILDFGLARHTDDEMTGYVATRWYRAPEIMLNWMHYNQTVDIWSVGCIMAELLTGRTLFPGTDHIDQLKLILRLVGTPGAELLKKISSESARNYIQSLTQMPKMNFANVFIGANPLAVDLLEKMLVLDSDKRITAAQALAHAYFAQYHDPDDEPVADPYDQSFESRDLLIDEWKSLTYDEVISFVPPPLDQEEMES
Particulars: P38a/MAPK14; 0.1 μM; 10 μM ATP; read-out: % Enzyme Activity (relative to DSMO controls). As to the method:
as §1, §2

The target of test [3] is T3, panel of 60 human kinases (Homo sapiens, UniProt P24941).
T3 construct: purchased Reaction Biology Corp
Particulars: 0.1 μM, 10 μM ATP, read-out: % Enzyme Activity (relative to DSMO controls). As to the method: as §1, §2

The target of test [4] is T4, panel of 60 human kinases (Homo sapiens, UniProt Q9H2K8).
T4 construct: purchased Reaction Biology Corp
T4 sequence (Q9H2K8 1-898): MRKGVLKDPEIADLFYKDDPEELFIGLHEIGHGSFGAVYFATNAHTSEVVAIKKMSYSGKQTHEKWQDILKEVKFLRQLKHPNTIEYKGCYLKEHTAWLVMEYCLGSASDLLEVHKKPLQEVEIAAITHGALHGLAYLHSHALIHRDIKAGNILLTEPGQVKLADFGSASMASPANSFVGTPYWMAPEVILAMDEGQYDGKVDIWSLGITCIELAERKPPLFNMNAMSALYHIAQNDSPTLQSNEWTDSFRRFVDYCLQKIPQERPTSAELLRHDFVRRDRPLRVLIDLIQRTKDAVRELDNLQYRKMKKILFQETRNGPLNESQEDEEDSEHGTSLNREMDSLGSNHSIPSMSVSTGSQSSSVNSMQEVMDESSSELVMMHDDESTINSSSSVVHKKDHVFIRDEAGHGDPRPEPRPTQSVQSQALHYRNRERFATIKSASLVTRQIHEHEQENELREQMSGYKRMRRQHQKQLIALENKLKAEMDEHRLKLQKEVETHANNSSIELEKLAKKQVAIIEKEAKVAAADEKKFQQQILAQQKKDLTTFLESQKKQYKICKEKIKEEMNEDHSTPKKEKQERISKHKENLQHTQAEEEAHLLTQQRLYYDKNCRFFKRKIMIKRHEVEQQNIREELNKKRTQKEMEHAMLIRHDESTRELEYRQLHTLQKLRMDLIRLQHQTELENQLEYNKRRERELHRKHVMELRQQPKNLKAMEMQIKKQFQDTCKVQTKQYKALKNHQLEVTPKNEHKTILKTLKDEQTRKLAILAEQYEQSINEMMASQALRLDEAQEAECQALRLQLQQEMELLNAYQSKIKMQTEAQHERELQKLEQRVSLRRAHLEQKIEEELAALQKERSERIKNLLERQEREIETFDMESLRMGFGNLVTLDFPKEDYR
Particulars: TAOK3/JIK; 0.1 μM; 10 μM ATP; read-out: % Enzyme Activity (relative to DSMO controls). As to the method:
as §1, §2

In test [5] the target is T5, panel of 60 human kinases (Homo sapiens, UniProt Q13470).
T5 construct: purchased Reaction Biology Corp
T5 sequence (Q13470 1-666): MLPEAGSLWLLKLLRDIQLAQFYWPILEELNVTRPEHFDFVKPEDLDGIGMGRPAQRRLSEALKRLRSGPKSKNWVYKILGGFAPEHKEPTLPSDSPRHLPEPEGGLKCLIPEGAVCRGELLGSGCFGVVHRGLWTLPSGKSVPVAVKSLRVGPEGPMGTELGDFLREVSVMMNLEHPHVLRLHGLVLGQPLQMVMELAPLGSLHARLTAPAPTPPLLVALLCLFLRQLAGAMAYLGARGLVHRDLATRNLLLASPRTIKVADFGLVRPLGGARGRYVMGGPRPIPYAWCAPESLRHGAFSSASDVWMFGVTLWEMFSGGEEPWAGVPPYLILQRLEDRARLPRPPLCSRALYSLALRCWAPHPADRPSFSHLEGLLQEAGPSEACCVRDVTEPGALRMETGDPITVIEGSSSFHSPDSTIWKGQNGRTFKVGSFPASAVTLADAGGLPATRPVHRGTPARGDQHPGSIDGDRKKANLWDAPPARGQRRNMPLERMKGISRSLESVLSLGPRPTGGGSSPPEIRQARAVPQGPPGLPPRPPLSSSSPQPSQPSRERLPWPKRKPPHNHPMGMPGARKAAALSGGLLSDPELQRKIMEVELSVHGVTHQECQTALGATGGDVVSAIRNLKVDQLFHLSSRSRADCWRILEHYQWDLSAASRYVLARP
Particulars: TNK1; 0.1 μM; 10 μM ATP; read-out: % Enzyme Activity (relative to DSMO controls). As to the method: as §1, §2

The target in test [6] is T6, panel of 60 human kinases (Homo sapiens, UniProt Q00537).
T6 construct: purchased Reaction Biology Corp
T6 sequence (Q00537 whole entry): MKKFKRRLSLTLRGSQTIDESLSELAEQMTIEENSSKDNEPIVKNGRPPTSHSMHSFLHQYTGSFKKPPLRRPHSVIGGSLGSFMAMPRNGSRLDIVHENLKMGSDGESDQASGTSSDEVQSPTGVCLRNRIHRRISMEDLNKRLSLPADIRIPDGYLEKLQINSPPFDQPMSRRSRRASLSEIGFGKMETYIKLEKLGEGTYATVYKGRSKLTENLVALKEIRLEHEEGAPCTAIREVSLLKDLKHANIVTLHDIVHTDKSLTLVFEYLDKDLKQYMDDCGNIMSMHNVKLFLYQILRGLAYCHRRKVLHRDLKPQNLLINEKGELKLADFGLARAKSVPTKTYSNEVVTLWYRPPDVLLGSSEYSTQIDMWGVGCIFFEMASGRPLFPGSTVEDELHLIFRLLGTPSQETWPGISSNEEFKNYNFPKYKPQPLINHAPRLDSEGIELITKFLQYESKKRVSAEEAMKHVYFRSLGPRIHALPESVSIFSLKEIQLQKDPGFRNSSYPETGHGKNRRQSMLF
Conditions: CDK17/cyclin Y (PCTK2); 0.1 μM; 10 μM ATP; read-out: % Enzyme Activity (relative to DSMO controls). As to the method:
as §1, §2

Test [7] addresses T7, panel of 60 human kinases (Homo sapiens, UniProt Q9Y4K4).
T7 construct: purchased Reaction Biology Corp
Conditions: KHS/MAPK4K5; 0.1 μM; 10 μM ATP; read-out: % Enzyme Activity (relative to DSMO controls). As to the method:
as §1, §2

Test [8] concerns the target T8, panel of 60 human kinases (Homo sapiens, UniProt P00519).
T8 construct: purchased Reaction Biology Corp
Particulars: ABL1; 0.1 μM; 10 μM ATP; read-out: % Enzyme Activity (relative to DSMO controls). As to the method:
as §1, §2

Test [9] addresses T9, panel of 60 human kinases (Homo sapiens, UniProt Q9UKE5).
T9 construct: purchased Reaction Biology Corp
Conditions: TNIK; 0.1 μM; 10 μM ATP; read-out: % Enzyme Activity (relative to DSMO controls). As to the method:
as §1, §2

T8 sequence (P00519 whole entry): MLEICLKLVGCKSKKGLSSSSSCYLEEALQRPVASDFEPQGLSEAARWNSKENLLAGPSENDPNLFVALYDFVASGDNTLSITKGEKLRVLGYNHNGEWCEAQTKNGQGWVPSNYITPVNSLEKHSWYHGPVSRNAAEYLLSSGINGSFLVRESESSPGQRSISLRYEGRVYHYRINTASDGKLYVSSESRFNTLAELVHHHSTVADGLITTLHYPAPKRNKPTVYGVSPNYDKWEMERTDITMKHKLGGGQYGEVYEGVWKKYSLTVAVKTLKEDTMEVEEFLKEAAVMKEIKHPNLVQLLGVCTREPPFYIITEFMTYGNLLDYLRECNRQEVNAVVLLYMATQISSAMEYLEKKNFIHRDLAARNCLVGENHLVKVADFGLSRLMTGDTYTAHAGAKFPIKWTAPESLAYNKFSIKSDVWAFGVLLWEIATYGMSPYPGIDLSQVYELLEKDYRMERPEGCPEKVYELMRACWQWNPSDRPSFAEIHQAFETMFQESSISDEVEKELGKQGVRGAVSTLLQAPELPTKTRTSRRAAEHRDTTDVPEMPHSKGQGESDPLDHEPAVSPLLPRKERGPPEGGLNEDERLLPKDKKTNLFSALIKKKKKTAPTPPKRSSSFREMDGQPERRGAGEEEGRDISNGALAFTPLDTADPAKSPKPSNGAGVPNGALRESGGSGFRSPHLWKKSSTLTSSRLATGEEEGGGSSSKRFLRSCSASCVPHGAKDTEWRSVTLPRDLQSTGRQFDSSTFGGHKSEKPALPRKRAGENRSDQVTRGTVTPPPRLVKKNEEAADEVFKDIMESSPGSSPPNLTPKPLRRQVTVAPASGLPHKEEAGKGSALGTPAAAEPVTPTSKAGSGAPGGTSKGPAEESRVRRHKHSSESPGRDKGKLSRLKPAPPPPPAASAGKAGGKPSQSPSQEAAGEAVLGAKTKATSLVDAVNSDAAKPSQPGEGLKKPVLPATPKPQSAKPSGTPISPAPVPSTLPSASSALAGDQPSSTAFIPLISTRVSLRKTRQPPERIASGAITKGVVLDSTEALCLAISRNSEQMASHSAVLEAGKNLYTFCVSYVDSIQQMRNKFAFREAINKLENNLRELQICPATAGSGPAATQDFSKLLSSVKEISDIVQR
T7 sequence (Q9Y4K4 whole entry): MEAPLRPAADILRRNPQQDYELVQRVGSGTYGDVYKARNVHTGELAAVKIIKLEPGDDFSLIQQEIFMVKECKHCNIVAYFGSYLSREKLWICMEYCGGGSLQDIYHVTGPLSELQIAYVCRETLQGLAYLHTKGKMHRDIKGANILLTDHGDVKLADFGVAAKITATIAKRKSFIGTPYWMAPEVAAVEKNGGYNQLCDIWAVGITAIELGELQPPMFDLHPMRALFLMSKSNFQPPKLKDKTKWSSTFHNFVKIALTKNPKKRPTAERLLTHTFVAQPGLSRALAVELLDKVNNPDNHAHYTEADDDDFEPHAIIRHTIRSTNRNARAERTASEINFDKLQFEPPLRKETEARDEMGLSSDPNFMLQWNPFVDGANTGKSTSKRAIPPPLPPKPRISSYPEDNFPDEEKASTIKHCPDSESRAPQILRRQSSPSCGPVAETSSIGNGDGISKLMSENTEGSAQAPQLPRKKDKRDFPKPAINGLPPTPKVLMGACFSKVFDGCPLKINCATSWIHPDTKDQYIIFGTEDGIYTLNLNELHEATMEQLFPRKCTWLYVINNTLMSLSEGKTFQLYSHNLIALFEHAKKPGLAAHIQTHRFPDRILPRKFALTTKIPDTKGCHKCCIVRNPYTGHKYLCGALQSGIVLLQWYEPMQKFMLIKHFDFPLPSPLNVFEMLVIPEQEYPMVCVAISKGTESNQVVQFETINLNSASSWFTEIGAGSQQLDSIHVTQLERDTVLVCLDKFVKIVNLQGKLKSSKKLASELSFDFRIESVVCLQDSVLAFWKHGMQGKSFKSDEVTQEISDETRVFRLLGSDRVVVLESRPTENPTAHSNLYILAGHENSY
T9 sequence (Q9UKE5 whole entry): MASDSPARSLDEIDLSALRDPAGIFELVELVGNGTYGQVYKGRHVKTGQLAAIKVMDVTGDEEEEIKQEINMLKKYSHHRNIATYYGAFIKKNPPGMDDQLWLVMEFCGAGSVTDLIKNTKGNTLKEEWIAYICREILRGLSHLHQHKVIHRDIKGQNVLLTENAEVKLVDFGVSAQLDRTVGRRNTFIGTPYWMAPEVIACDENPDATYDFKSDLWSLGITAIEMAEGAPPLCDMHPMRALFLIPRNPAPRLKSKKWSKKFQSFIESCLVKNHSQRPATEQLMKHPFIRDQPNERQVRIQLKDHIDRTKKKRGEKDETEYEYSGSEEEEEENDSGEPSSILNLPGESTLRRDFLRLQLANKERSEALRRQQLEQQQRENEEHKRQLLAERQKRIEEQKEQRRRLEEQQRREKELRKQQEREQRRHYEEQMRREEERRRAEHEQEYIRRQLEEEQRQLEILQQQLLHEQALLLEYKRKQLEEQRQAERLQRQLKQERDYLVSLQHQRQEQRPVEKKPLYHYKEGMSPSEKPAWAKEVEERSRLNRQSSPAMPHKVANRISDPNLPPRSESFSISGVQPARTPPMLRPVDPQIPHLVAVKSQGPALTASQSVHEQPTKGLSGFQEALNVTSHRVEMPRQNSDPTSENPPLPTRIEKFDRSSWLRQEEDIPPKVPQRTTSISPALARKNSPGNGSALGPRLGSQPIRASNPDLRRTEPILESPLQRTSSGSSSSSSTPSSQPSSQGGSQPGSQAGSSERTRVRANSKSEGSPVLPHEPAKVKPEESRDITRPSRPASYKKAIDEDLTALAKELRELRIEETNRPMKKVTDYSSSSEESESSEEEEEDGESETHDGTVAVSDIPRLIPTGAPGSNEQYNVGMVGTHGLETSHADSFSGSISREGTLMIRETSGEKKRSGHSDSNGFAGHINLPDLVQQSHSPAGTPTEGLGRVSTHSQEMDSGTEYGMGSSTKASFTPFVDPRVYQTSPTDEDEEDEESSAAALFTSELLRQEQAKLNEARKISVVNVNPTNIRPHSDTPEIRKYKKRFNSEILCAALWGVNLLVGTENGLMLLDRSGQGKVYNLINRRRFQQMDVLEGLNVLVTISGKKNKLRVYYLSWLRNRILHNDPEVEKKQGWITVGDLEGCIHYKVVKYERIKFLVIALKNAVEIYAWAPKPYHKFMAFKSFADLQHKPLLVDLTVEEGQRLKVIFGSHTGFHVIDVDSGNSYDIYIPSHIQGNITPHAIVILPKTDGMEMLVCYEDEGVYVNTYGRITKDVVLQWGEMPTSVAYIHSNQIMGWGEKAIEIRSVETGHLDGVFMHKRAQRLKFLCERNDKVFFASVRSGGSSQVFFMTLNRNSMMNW

Take `CN1CCN(Cc2ccc(-c3cnc4[nH]cc(-c5ccc6[nH]ccc6c5)c4c3)cc2)CC1` [Compound 1, 3-(1H-Indol-5-yl)-5-(4-((4-methylpiperazin-1-yl)methyl)phenyl)-1H-pyrrolo[2,3-b]pyridine, reference compound]: the remaining activity at 0.1 µM in test [1] came to 75.3%; in test [2], 108%; in test [3] (CDK2/cyclin A1), 83.6%; in test [3] (CDK2/cyclin A) it was 83.7%; in test [3] (CDK2/cyclin E), 97.9%; in test [3] (CDK2/cyclin O) it was 72.5%. Besides, the remaining activity at 0.1 µM in test [4] came to 84%; in test [5] it was 28.8%; in [6], 66.1%; in [7], 11%; in [8], 46.6%; in test [9] it was 3%.
Regarding `CN1CCN(Cc2ccc(-c3cnc4[nH]cc(-c5cccc(Cl)c5)c4c3)cc2)CC1` [Compound 7ad, 3-(3-Chlorophenyl)-5-(4-((4-methylpiperazin-1-yl)methyl)phenyl)-1H-pyrrolo[2,3-b]pyridine], the remaining activity at 0.1 µM in test [1] came out at 88.7%; in test [2] it was 105%; in test [3] (CDK2/cyclin A1), 97%; in [3] (CDK2/cyclin A), 87.4%; in [3] (CDK2/cyclin E) it was 96.2%; in test [3] (CDK2/cyclin O) it was 75.1%. The remaining activity at 0.1 µM in [4] stood at 92%; in test [5], 53.5%; in test [6] it was 70.4%; in [7], 5.8%; in [8] it was 77.3%; in test [9], 0.68%.
As for `CN1CCN(Cc2ccc(-c3cnc4[nH]cc(-c5cnn(Cc6ccccc6)c5)c4c3)cc2)CC1` [Compound 7ah, 3-(1-Benzyl-1H-pyrazol-4-yl)-5-(4-((4-methylpiperazin-1-yl)methyl)phenyl)-1H-pyrrolo[2,3-b]pyridine], the remaining activity at 0.1 µM in [1] was 18.6%; in [2] it was 109%; in test [3] (CDK2/cyclin A1) it was 30.7%; in [3] (CDK2/cyclin A), 44.2%; in test [3] (CDK2/cyclin E), 48.9%; in [3] (CDK2/cyclin O) it was 19.2%. Besides, the remaining activity at 0.1 µM stood at 77.4% in [4]; 37.8% in test [5]; 7.55% in test [6]; 6.09% in [7]; 81% in test [8]; 0.96% in test [9].
Turning to `Cc1nn(C)c(C)c1-c1c[nH]c2ncc(-c3ccc(CN4CCN(C)CC4)cc3)cc12` [Compound 7ai, 5-(4-((4-Methylpiperazin-1-yl)methyl)phenyl)-3-(1,3,5-trimethyl-1H-pyrazol-4-yl)-1H-pyrrolo[2,3-b]pyridine], the remaining activity at 0.1 µM was determined as 77.7% in test [1]; 98.2% in test [2]; 87.8% in test [3] (CDK2/cyclin A1); 90.9% in test [3] (CDK2/cyclin A); 94.8% in test [3] (CDK2/cyclin E); 77.9% in test [3] (CDK2/cyclin O). Moreover, the remaining activity at 0.1 µM is 102% in test [4]; 63.6% in test [5]; 69.4% in test [6]; 16.5% in test [7]; 26.3% in test [8]; 1.35% in test [9].
As for `CN1CCN(Cc2ccc(-c3cnc4[nH]cc(-c5ccccc5Cl)c4c3)cc2)CC1` [Compound 7as, 3-(2-Chlorophenyl)-5-(4-((4-methylpiperazin-1-yl)methyl)phenyl)-1H-pyrrolo[2,3-b]pyridine], the remaining activity at 0.1 µM in test [1] is 74.6%; in [2], 113%; in [3] (CDK2/cyclin A1), 65%; in [3] (CDK2/cyclin A) it was 69.5%; in [3] (CDK2/cyclin E), 88.5%; in [3] (CDK2/cyclin O) it was 51.2%. Moreover, the remaining activity at 0.1 µM in test [4] was found to be 69.8%; in [5] it was 33.9%; in test [6] it was 44.1%; in test [7], 0.89%; in test [8], 5.92%; in test [9], 0.51%.
Turning to `COc1ccccc1-c1c[nH]c2ncc(-c3ccc(CN4CCN(C)CC4)cc3)cc12` [Compound 7at, 3-(2-Methoxyphenyl)-5-(4-((4-methylpiperazin-1-yl)methyl)phenyl)-1H-pyrrolo[2,3-b]pyridine], the remaining activity at 0.1 µM in test [1] was 102%; in [2], 96.2%; in test [3] (CDK2/cyclin A1) it was 58.8%; in test [3] (CDK2/cyclin A), 56.1%; in [3] (CDK2/cyclin E), 80.6%; in test [3] (CDK2/cyclin O), 29.6%. In addition, the remaining activity at 0.1 µM in [4] worked out at 65.5%; in test [5], 38.4%; in test [6], 69.7%; in [7] it was 3.35%; in test [8], 19%; in [9], 2.2%.
As to `CN1CCN(Cc2ccc(-c3cnc4[nH]cc(-c5ccc6c(c5)OCCO6)c4c3)cc2)CC1` [Compound 7d, 3-(2,3-Dihydrobenzo[b][1,4]dioxin-6-yl)-5-(4-((4-methylpiperazin-1-yl)methyl)phenyl)-1H-pyrrolo[2,3-b]pyridine], the remaining activity at 0.1 µM in test [1] was 52.2%; in test [2], 102%; in [3] (CDK2/cyclin A1), 38.8%; in test [3] (CDK2/cyclin A), 34.4%; in [3] (CDK2/cyclin E) it was 89.1%; in [3] (CDK2/cyclin O), 39%. In addition, the remaining activity at 0.1 µM in [4] was found to be 67.9%; in [5], 44.3%; in [6], 41.1%; in test [7] it was 4.17%; in test [8], 74.5%; in test [9], 12.1%.
